Data as given in patent US10500202B2, “Pharmaceutical formulation containing tadalafil” (Druggability Technologies IP Holdco Limited, priority 2016, dated 2019).
Like-named read-outs stand apart in the source and are kept apart here.

Experiments:
[1] = cited from earlier work
PAMPA permeability = assay type: in vitro ADME
Method: PAMPA permeability of the selected compositions was measured in order to select the pharmaceutical Tadalafil compositions having the best in-vitro performance (FIG. 2). PAMPA permeability measurements were performed as described by M. Kansi et al. (Journal of medicinal chemistry, 41, (1998) pp 1007) with modifications based on S. Bendels et al (Pharmaceutical research, 23 (2006) pp 2525). Permeability was measured in a 96-well plate assay across an artificial membrane composed of dodecane with 20% soy lecithin supported by a PVDF membrane (Millipore, USA). The receiver compartment was phosphate buffered saline (pH 7.0) supplemented with 1% sodium dodecyl sulfate. The assay was performed at room temperature; incubation time was 4 hours in ultrapurified water or 10-20 and 30 minutes in simulates saliva, respectively. The concentration in the receiver compartment was determined by UV-VIS spectrophotometry (Thermo Scientific Genesys S10).
PAMPA permeabilities of Tadalafil pharmaceutical compositions in water (H2O), FaSSIF (Fa) and FeSSIF (Fe) media were above 7.6×10^−6 cm/s, 7.2×10^−6 cm/s and 4.3×10^−6 cm/s, respectively, while it was 0.6×10^−6 cm/s, 0.6×10^−6 cm/s and 0.8*10^−6 cm/s in water, FaSSIF and FeSSIF media for the unformulated, crystalline reference. PAMPA permeability of Cialis® in water, FaSSIF and FeSSIF media was above 0.9×10^−6 cm/s, 0.8×10^−6 cm/s and 1.1×10^−6 cm/s, respectively.
PAMPA permeability of the solid Tadalafil pharmaceutical compositions was used to monitor the physical stability of the pharmaceutical formulation. PAMPA permeability was measured after storage at different conditions.

[2] = 10 mg/kg, beagle dog, cited from earlier work
[3] = cited from earlier work; remark: listed apart in the source

Cc1cccc(O)c1O [Methylcatechol]
Methylcatechol concentrations relative to glucuronide concentrations ([1]; circulating metabolites of Tadalafil): less than 10%

CN1CC(=O)N2[C@H](c3ccc4c(c3)OCO4)c3[nH]c4ccccc4c3C[C@@H]2C1=O [Tadalafil]
Papp (PAMPA permeability; pH 7, FaSSIF): 0.6 ×10⁻⁶ cm/s
Papp (PAMPA permeability; pH 7, FeSSIF): 0.8 ×10⁻⁶ cm/s
Papp at 4 h (PAMPA permeability; pH 7, Water): 0.6 ×10⁻⁶ cm/s
Estimated F ([2]; iv, published (reference)): 100%
AUC24 ([2]; iv, published): 22894 ng·h/mL
Cmax ([2]; iv, published): 3663 ng/mL
AUC24 ([2]; oral, published): 4109 ± 3141 ng·h/mL
Cmax ([2]; oral, published): 526 ± 281 ng/mL
Estimated F ([2]; oral, published): 18%
tmax ([2]; oral, published): 3 h
Solubility ([3]; ethanol): very slightly soluble
Solubility ([3]; water): practically insoluble
Exposure (AUC) versus dose ([1]; dose range of 2.5 to 20 mg, healthy subjects): increases proportionally with dose
Fraction of administered dose in semen ([1]; healthy subjects): Less than 0.0005%
Mean oral clearance ([1]; healthy subjects): 2.5 L/h
Mean terminal half-life ([1]; healthy subjects): 17.5 h
Steady-state exposure relative to a single dose ([1]; once-daily dosing): approximately 1.6 fold
Time to steady-state plasma concentrations ([1]; once-daily dosing): ≤ 5 days
Mean apparent volume of distribution ([1]; oral administration): approximately 63 L
Effect of food on rate and extent of absorption ([1]; oral): not influenced by food
Excretion in the feces ([1]; predominantly as metabolites): approximately 61 % of the dose
Excretion in the urine ([1]; predominantly as metabolites): approximately 36 % of the dose
tmax values ([1]; range): 0.5 to 6 h
Fraction in plasma bound to proteins ([1]; therapeutic concentrations): 94%
